The text below walks through data of patent publication US10440955B2, “Methods comprising a biocidal polyamine” (Curza Global, LLC, priority 2013, dated 2019).

The MIC is the smallest concentration in the dilution series that meets the test's criterion for growth inhibition.

The test system of data set [1] is MRSA. Nature of the data set: MIC against MRSA (as defined by CLSI). It counts as cell-based. The note with it: Staphylococcus aureus, FIG. 25. The procedure:
To determine the MIC of the polyamine chains alone and the synthesized compounds against MRSA and P. aeruginosa ATCC 27853, a modified protocol from the Clinical and Laboratory Standards Institute (CLSI) guideline M26-A was used. […] All data was collected using cation adjusted MHB for standardization.
As mentioned, MRSA and P. aeruginosa ATCC 27853 were grown on Columbia blood agar plates prior to experimentation. From the blood agar plates, a 0.5 McFarland standard was made of each isolate. This equated to approximately 5×10^7 cells/mL for the MRSA isolate and approximately 3×10^7 cells/mL for the P. aeruginosa ATCC 27853 isolate. Of the 0.5 McFarland stock solution, 50 μL were added to MHB. […] All tests were performed such that a final volume of 5 mL of MHB were obtained. This provided a final bacterial concentration of approximately 5×10^5 cells/mL.
Each sample was incubated in glass test tubes at 37° C. for 24 hours, then plated in duplicate on tryptic soy agar (TSA) using a 10-fold dilution series. TSA plates were further incubated 24 hours at 37° C. The number of colony forming units (CFU) that grew were counted in order to calculate the number of bacteria that were present per mL in the original MHB solution.

Data set [2] relates to MRSA. Nature of the data set: MIC, 96-well CAMHB, 10^5 to 10^2 CFU/mL in 24 hours. In kind it is cell-based, Staphylococcus aureus. The note with it: Staphylococcus aureus, MRSA, read-out: MIC (MRSA). Put shortly:
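Isolates diluted from 0.5 McFarland in CAMHB to ~5×10^5 CFU/mL, exposed to varying polyamine concentrations 24 h at 37 °C. Well contents plated on TSA, incubated 24 h at 37 °C and surviving CFU/mL counted; n=8 per concentration.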

The test system of data set [3] is P. aeruginosa. The data set is described as above. In kind it is cell-based, Pseudomonas aeruginosa. To be noted: Pseudomonas aeruginosa. In a few lines: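 Broth microdilution in CAMHB with about 5×10^5 CFU/mL inoculum, incubated 24 h at 37 °C with graded polyamine compound concentrations. Surviving CFU/mL determined by plating each well on TSA for 24 h at 37 °C; n=8 per concentration.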

Data set [4] concerns A. baumannii. Described as above. It counts as cell-based, Acinetobacter baumannii. The note with it: Acinetobacter baumannii, read-out: MIC (A. bumannii). The procedure:
To determine the MIC of polyamine compounds, the protocol described herein was used.
In brief, a 0.5 McFarland of each bacterial isolate was made. A 0.5 McFarland is a measure of turbidity in a liquid sample that contains approximately 1×10^∧8 CFU/mL. The 0.5 McFarland standard was diluted in cation adjusted Mueller Hinton Broth (CAMHB), and 50 μL of broth were added to a well of a 96-well plate. In addition, 50 μL of CAMHB that contained a desired concentration of antimicrobial were also added to the well for a final volume of 100 μL and a final concentration of approximately 5×10^4 CFU/well (which equated to approximately 5×10^5 CFU/mL). Each well contained a desired amount of polyamine compound in order to experimentally determine the MIC. Each 96-well plate was incubated at 37° C. for 24 hours. The contents of each well were plated on tryptic soy agar (TSA). TSA plates were incubated for 37° C. for 24 hours after which the number of CFU were counted and used to calculate the CFU/mL that remained after exposure to varying concentrations of compound. This procedure was repeated n=8 times for each concentration of antimicrobial.
A 0.5 McFarland of A. baumannii is made. A 0.5 McFarland is a measure of turbidity in a liquid sample that contains approximately 7.5×10^7 CFU/mL. The 0.5 McFarland standard is diluted in CAMHB and 50 μL of broth is added to a well of a 96-well plate. In addition, 50 μL of CAMHB that contains a desired concentration of antimicrobial is added to the well for a final volume of 100 μL and a final concentration of approximately 5×10^4 CFU/well (which equates to approximately 5×10^5 CFU/mL). Each well contains a desired amount of CZ compound in order to experimentally determine the MIC. Each 96-well plate is incubated at 37° C. for 24 hours. The contents of each well is plated on tryptic soy agar (TSA). TSA plates is incubated at 37° C. for 24 hours after which the number of CFUs is counted and used to calculate the CFU/mL that remain after exposure to varying concentrations of compound. This procedure is repeated n=8 times for each concentration of antimicrobial. […]

Data set [5] deals with various bacterial cell cultures. Nature of the data set: Antimicrobial activity of polyamines in hydrogel on agar lawns. In kind it is cell-based. To be noted: 0.5% CZ compound in 0.5% sodium hyaluronate gel, 500 uL on TSA lawn, 37 C for 24 hours. The procedure:
A 0.5 McFarland standard of each bacteria was made, then individual lawns of bacteria spread onto the surface of tryptic soy agar (TSA). 500 uL of the suspended gel were placed on the center of each lawn. Plates were incubated at 37 C for 24 hours, then imaged. Images of the resulting gels are shown in FIGS. 30A to 30I show the effects of the polyamines CZ-86, CZ-100, and CZ-110 on various bacterial cell cultures.
The hydrogel that was used for those images is a LifeCore gel with 1% sodium hyaluronate (1% Sodium Hyaluronate Solution Part #82). The CZ compound was suspended in water at 1% (w/w) concentration and combined with the LifeCore gel 1:1 for a final product that contained 0.5% sodium hyaluronate and 0.5% CZ compound.

Data set [6] deals with L-929 cells (ATCC CCL-1). Nature of the data set: Minimal Essential Media (MEM) Elution cytotoxicity test. In kind it is cell-based. To be noted: Table 9A. Put shortly: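 L-929 cells (ATCC CCL-1) were seeded in multiwell plates and grown to roughly 80% confluence. Test article dilutions (1:2, 1:4, 1:8, 1:16) and control extracts were applied in triplicate and incubated 48±3 hours at 37±1° C. in 5±1% CO2. Wells were scored microscopically for morphological cytotoxicity on a 0–4 scale and averaged; Pass required grade not greater than 2 per USP <87>.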

Data set [7] deals with human blood. Nature of the data set: Hemolysis test with diluted human blood (ISO 10993-4). In kind it is cell-based. The source says:
Procedure: The PBS used in testing was calcium and magnesium free. The method has been validated using human blood from one donor. This is in compliance with ISO 10993-4 which states due to differences in blood activity, human blood should be used where possible. Furthermore, pooling unmatched human blood from multiple donors may cause red blood cell agglutination which in turn could cause hemolysis; this supports the use of a single donor.
The blood was drawn using vacutainers containing 0.1 M sodium citrate at a ratio of 9:1 (3.2% anticoagulant to blood). The blood in this test was used within four hours of blood draw. The collected blood was refrigerated until testing was performed.
A hemoglobin standard was diluted with Drabkin's reagent to give solutions at concentrations of 0.80, 0.60, 0.40, 0.30, 0.20, 0.10, 0.02, and 0.01 mg/ml. These solutions were allowed to stand at room temperature for a minimum of five minutes. The absorbance was read on a spectrophotometer at 540 nanometers (nm). A standard curve was determined with the absorbance values and the standard concentrations of hemoglobin.
Human blood was centrifuged at 700-800×g for 15 minutes. A 1 mL aliquot of the plasma was added into 1 mL of Drabkin's reagent, and placed at room temperature for a minimum of 15 minutes. The absorbance was read on a spectrophotometer at 540 nm. The hemoglobin concentration was determined from the standard curve and then multiplied by a factor of 2 to obtain the total plasma free hemoglobin. The plasma free hemoglobin was less than 2 mg/mL (actual value 0.221 mg/mL). A 20 μL aliquot of blood was added to 5 mL of Drabkin's reagent in duplicate and allowed to stand at room temperature for a minimum of 15 minutes. The absorbance was read on a spectrophotometer at 540 nm then multiplied by 251 to account for the dilution.
Based on the plasma hemoglobin and the blood absorbance against Drabkin's reagent, the blood was diluted out to 10±1 mg/mL with PBS. To verify the blood dilution, a 300 μL aliquot of this blood was added to 4.5 mL of Drabkin's reagent in triplicate and allowed to stand at room temperature for a minimum of 15 minutes. The absorbance was read on a spectrophotometer at 540 nm then multiplied by 16 to account for the dilution.
Glass test tubes were labeled appropriately. Both samples were prepared the same way. The samples were allowed to thaw prior to testing. To each test tube, 7 mL of the test article and 1 mL of the diluted blood were added. The controls consisted of the appropriate amount of control material, 7 mL of PBS and 1 mL of blood. Three tubes were prepared for each test article and control. The tubes were incubated at 37±2° C. for 3 hours±5 minutes. Tubes were gently inverted twice at 30 minute intervals throughout the incubation period. A non-hemolytic negative control, a hemolytic positive control and a PBS blank were included.
After incubation, test articles were centrifuged at 700-800×g for 15 minutes and 1 mL of the supernatant fluid was combined with 1 mL of Drabkin's reagent and allowed to stand at room temperature for a minimum of 15 minutes. Following the centrifugation phase, the supernatant of both test articles visually appeared clear and were particulate free. The PBS blank and the negative control supernatant visually appeared clear and were particulate free. The supernatant of the positive control visually appeared red and were particulate free. The test articles and controls were read at 540 nm in a spectrophotometer.
The hemolytic index (percent hemolysis) was interpreted using the following equation:
[formula] Where: Hemoglobin Released (mg/mL)=(Optical Density×X Coefficient+Constant)×16 Hemoglobin Present (mg/ml)=Diluted Blood 10±1 mg/mL
The corrected hemolytic index was calculated by subtracting the hemolytic index of the PBS blank solution from the hemolytic index of the test article and controls. […]

In data set [8] the test system is biofilms of MRSA. To be noted: understanding of the inventors; no own test described; cited from earlier work.
Setting [9] is: Table 5, read-out: MIC (P. aeruginosa).
Where [10] appears, read: read-out: MIC (P. aeruginosa), Table 5.

Molecules are shown by their SMILES. Converted amounts (≈) assume the structure as drawn. Structures can show the parent of a compound that is named as a salt. Where two headings read alike, the source gives them in different places.

Regarding `NCCCNCc1ccccc1` [CZ-4, N^1-benzylpropane-1,3-diamine], the MIC in data set [1] was over 1200 µg/mL; in data set [2] (Table 5), over 100 µM; in data set [3] (setting [9]), over 100 µM.
Take `CCCCCCCCNCCCNCCCNCc1cccc(CNCCCNCCCNCCCCCCCC)c1` [CZ-100, N^1,N^1′-(1,3-phenylenebis(methylene))bis(N^3-(3-(octylamino)propyl)propane-1,3-diamine)]: the MIC in data set [2] (Table 5), in data set [3] (setting [9]) and in data set [4] (Table 5) was under 50 µM throughout. Besides, the “zones of inhibition in bacterial lawns” value in data set [5] was “created zones of inhibition”. The “Results Pass/Fail” value in data set [6] (3.125 μg/mL) was “Pass (receives a passing score (Pass) if the reactivity grade is not greater than grade 2 or a mild reactivity)”; in data set [6] (6.25 μg/mL) it was “Pass (receives a passing score (Pass) if the reactivity grade is not greater than grade 2 or a mild reactivity)”; in data set [6] (12.5 μg/mL), “Pass (receives a passing score (Pass) if the reactivity grade is not greater than grade 2 or a mild reactivity)”; in data set [6] (25 μg/mL) it was “Fail (a numerical grade greater than 2 is considered a cytotoxic effect, or a failing score (Fail))”; in data set [6] (1.563 (unit not given)) it was “Pass (receives a passing score (Pass) if the reactivity grade is not greater than grade 2 or a mild reactivity)”.
Turning to `CCC(CC)COc1cc(CNCCCNCCCN)cc(CNCCCNCCCN)c1` [CZ-90, N^1,N^1′-((5-(2-ethylbutoxy)-1,3-phenylene)bis(methylene))bis(N^3-(3-aminopropyl)propane-1,3-diamine), hydrochloride salt], the MIC in data set [2] was under 50 µM. Further, in data set [3] (setting [10]), the MIC is under 50 µM. In data set [7], the “Average Hemolytic Index (% Hemolysis)” value turned out to be 0.76 % Hemolysis; the “Hemolytic Grade” value is listed as “non-hemolytic”; the “difference between the hemolytic indexes of test article and negative control” value is recorded as 0.00%. Also, the “Average Optical Density” value in data set [7] (540 nm) worked out at 0.003. The “Optical Density” value in data set [7] (540 nm, three tubes, 37 ± 2° C., 3 hours) amounted to 0.003. The “Corrected Hemolytic Index (% Hemolysis)” value in data set [7] (hemolytic index of the PBS blank subtracted) was determined as 0.00 % Hemolysis. Besides, the “Hemolytic Index” value in data set [7] (three tubes) worked out at 0.764.
For `NCCCNCc1cccc(CNCCCN)c1` [CZ-12], the MIC in data set [1] was 300 µg/mL (≈ 1200 µM); in data set [2] (Table 5), over 100 µM; in data set [3] (setting [9]), 50 to 100 µM (≈ 12.5 to 25 µg/mL).
As to `CC(C)(C)CC(C)(C)c1ccc(OCCOCC[N+](C)(C)Cc2ccccc2)cc1` [benzethonium chloride], in data set [8], the “biofilm dispersal effect (comparison)” value is listed as “not seen”.
For `CCCCC(CC)COc1cc(CNCCCNCCCN)cc(CNCCCNCCCN)c1` (centres unmarked) [CZ-81, N^1,N^1′-((5-((2-ethylhexyl)oxy)-1,3-phenylene)bis(methylene))bis(N^3-(3-aminopropyl)propane-1,3-diamine), hydrochloride salt], the MIC in data set [2], in data set [3] (setting [10]) and in data set [4] was under 50 µM throughout.
As to `CCCCCCCCNCCCNCCCNCc1cc(CNCCCNCCCNCCCCCCCC)cc(OCCCNCC(C)C)c1` [CZ-110, N^1,N^1′-((5-(3-(isobutylamino)propoxy)-1,3-phenylene)bis(methylene))bis(N^3-(3-(octylamino)propyl)propane-1,3-diamine)], the MIC in data set [2] (Table 5), in data set [3] (setting [9]) and in data set [4] (Table 5) was under 50 µM each time. In addition, the “zones of inhibition in bacterial lawns” value in data set [5] was “created zones of inhibition”.
